Reference: US20090203763A1, “SUBSTITUTED BENZHYDRYLETHERS” (AUSPEX PHARMACEUTICALS, INC., priority 2008, published 2009)

Assays:
[1] = after both one-time and repeated (daily) administration; Verster et al. 2004; cited from earlier work
[2] = In vitro human liver microsomal (HLM) stability assay; assay type: in vitro ADME; conditions: human liver microsomes 1 mg per mL protein, 1 μM compound, about 37° C.; as compared to the non-isotopically enriched drug
Description: Liver microsomal stability assays were conducted at 1 mg per mL liver microsome protein with an NADPH-generating system in 2% NaHCO3 (2.2 mM NADPH, 25.6 mM glucose 6-phosphate, 6 units per mL glucose 6-phosphate dehydrogenase and 3.3 mM MgCl2). Test compounds were prepared as solutions in 20% acetonitrile-water and added to the assay mixture (final assay concentration 1 μM) and incubated at about 37° C. Final concentration of acetonitrile in the assay should be <1%. Aliquots (50 μL) were taken out at times 0, 0.25, […], and 1 hours, and diluted with ice cold acetonitrile (200 μL) to stop the reactions. Samples were centrifuged at 12,000 RPM for about 10 min to precipitate proteins. Supernatants were transferred to micro centrifuge tubes and stored for LC/MS/MS analysis of the degradation half-life of the test compounds.
Results of In Vitro Human Liver Microsomal (HLM) Stability Assay—Percent Change in Degradation Half-Life

Structure (SMILES) | Percent Change in Degradation Half-Life, 0%-50% [2] | Percent Change in Degradation Half-Life, −25%-0% [2] | other results
CN1CCC[C@@H]1CCO[C@](C)(c1ccccc1)c1ccc(Cl)cc1 [Clemastine, 2-[2-[1-(4-chlorophenyl)-1-phenyl-ethoxy]ethyl]-1-methyl-pyrrolidine] | – | – | effect on driving performance [1]: significantly impair driving performance
O=C(O)/C=C/C(=O)O.[2H]C([2H])(O[C@](C)(c1ccccc1)c1ccc(Cl)cc1)C([2H])([2H])[C@H]1CCCN1C [Example 3, (R)-2-[2-[(R)-1-(4-Chlorophenyl)-1-phenylethoxy]ethyl-2,2-d4]-1-methyl-pyrrolidine fumarate] | + (0%-50%) | – | –
O=C(O)/C=C/C(=O)O.[2H]C([2H])([2H])N1CCC[C@@H]1C([2H])([2H])C([2H])([2H])O[C@](C)(c1ccccc1)c1ccc(Cl)cc1 [Example 6, (R)-2-[2-[(R)-1-(4-Chlorophenyl)-1-phenylethoxy]ethyl-1,1,2,2-d4]-1-methyl-d3-pyrrolidine fumarate] | + (0%-50%) | – | –

Further lines, with some results ahead:

Percent Change in Degradation Half-Life, 0%-50% [2] | Percent Change in Degradation Half-Life, −25%-0% [2] | Structure (SMILES) | other results
+ (0%-50%) | – | O=C(O)/C=C/C(=O)O.[2H]C([2H])(C[C@H]1CCCN1C)O[C@](C)(c1ccccc1)c1ccc(Cl)cc1 [Example 2, (R)-2-[2-[(R)-1-(4-Chlorophenyl)-1-phenylethoxy]ethyl-2,2-d2]-1-methylpyrrolidine fumarate] | –
– | + (−25%-0%) | O=C(O)/C=C/C(=O)O.[2H]C([2H])([2H])N1CCC[C@@H]1CCO[C@](C)(c1ccccc1)c1ccc(Cl)cc1 [Example 4, (R)-2-[2-[(R)-1-(4-Chlorophenyl)-1-phenylethoxy]ethyl]-1-methyl-d3-pyrrolidine fumarate] | –
– | + (−25%-0%) | O=C(O)/C=C/C(=O)O.[2H]C([2H])(C[C@H]1CCCN1C([2H])([2H])[2H])O[C@](C)(c1ccccc1)c1ccc(Cl)cc1 [Example 5, (R)-2-[2-[(R)-1-(4-Chlorophenyl)-1-phenylethoxy]ethyl-2,2-d2]-1-methyl-d3-pyrrolidine fumarate] | –
